# Active and inactive are the calls of the source. The calls are words filed in the database; no cut-off is given here.
# Columns and labels:
# [1] = biological target: T1, Muscarinic acetylcholine receptor M1 (Homo sapiens, UniProt P11229); assay: Antagonist activity at human recombinant muscarinic receptor M1 expressed in CHO-K1 cells assessed as EC80 acetylcholine-induced calcium flux incubated for 30 mins; assay type: functional, cell-based
# T1 sequence (P11229 whole entry): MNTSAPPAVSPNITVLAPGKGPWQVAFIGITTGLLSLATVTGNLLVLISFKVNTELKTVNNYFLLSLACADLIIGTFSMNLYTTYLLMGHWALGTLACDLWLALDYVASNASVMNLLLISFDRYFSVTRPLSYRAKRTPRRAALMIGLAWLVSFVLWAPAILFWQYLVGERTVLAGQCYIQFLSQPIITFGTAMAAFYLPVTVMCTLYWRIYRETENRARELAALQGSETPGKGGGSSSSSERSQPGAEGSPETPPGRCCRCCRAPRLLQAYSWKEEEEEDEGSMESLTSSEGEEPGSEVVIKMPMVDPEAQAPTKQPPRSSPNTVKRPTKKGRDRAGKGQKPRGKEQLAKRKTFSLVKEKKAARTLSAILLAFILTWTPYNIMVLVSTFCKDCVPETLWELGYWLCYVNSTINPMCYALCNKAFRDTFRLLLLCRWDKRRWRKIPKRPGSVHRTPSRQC
# [2] = biological target: Cytochrome P450 3A4 (Homo sapiens, UniProt P08684); assay: Inhibition of human CYP3A4 in pooled human liver microsomes using midazolam as substrate incubated for 5 mins by LC-MS/MS; assay type: ADME
# [3] = biological target: T1, Muscarinic acetylcholine receptor M1; assay: Displacement of [3H]NMS from human recombinant muscarinic receptor M1 expressed in CHO-K1 cell membranes assessed as inhibition constant incubated for 1 hr by Radioligand binding assay
# [4] = Clearance in rat at 2 mg/kg, iv; assay type: ADME, organism-based; details: in vivo
# [5] = Drug uptake in rat brain at 10 mg/kg, po measured after 2 hrs by LC-MS/MS; assay type: ADME, organism-based; details: read-out: Drug uptake
# [6] = biological target: Muscarinic acetylcholine receptor M2 (Homo sapiens, UniProt P08172); assay: Displacement of [3H]NMS from human recombinant muscarinic receptor M2 expressed in CHO-K1 cell membranes assessed as inhibition constant incubated for 1 hr by Radioligand binding assay
# [7] = Oral bioavailability in rat at 10 mg/kg; assay type: ADME, organism-based; details: in vivo
# [8] = biological target: T2, Muscarinic acetylcholine receptor M2 (Homo sapiens, UniProt P08172); assay: Antagonist activity at human recombinant muscarinic receptor M2 expressed in CHO-K1 cells assessed as EC80 acetylcholine-induced calcium flux incubated for 30 mins; assay type: functional, cell-based
# T2 sequence (P08172 whole entry): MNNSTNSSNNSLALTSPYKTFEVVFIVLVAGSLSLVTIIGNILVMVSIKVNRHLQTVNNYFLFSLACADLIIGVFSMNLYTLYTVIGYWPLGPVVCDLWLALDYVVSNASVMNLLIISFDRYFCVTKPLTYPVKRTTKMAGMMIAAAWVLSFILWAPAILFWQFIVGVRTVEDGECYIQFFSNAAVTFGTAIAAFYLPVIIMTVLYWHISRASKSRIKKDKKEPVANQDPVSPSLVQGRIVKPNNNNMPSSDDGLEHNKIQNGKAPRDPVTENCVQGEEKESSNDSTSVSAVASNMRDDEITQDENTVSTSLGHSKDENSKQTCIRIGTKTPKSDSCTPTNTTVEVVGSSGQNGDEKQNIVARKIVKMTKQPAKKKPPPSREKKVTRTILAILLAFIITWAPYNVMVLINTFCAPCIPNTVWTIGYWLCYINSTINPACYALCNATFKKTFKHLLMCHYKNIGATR
# [9] = Plasma protein binding in mouse assessed as unbound fraction; assay type: ADME, cell-free
# [10] = Metabolic stability in mouse liver microsomes assessed as intrinsic clearance at 1 uM measured up to 60 mins by LC-MS/MS analysis; assay type: ADME, Microsome; details: read-out: CLH
# [11] = Unbound fraction in rat brain at 10 mg/kg, po measured after 2 hrs by LC-MS/MS; assay type: ADME, organism-based; details: in vivo
# [12] = Fraction unbound in rat plasma at 30 mg/kg, po measured after 8 hrs; assay type: ADME, organism-based; details: in vivo
# [13] = Apparant permeability across apical to basolateral side in dog MDCK-MDR1 cells; assay type: ADME, cell-based, Canis lupus familiaris
# [14] = Unbound clearance in rat at 10 mg/kg, po; assay type: ADME, organism-based; details: in vivo
# [15] = Metabolic stability in human liver microsomes assessed as intrinsic clearance at 1 uM measured up to 60 mins by LC-MS/MS analysis; assay type: ADME, Microsome; details: read-out: CLH
# [16] = tested on: Mus musculus; assay: In vivo receptor occupancy at muscarinic M1 receptor in myelin oligodendrocyte glycoprotein (MOG)-induced experimental autoimmune encephalitis C57BL/6 mouse model assessed as decrease in occupancy at 30 mg/kg, po measured up to 8 hrs; assay type: functional, organism-based; details: time hrs <=8
# [17] = biological target: T3, Muscarinic acetylcholine receptor M3 (Homo sapiens, UniProt P20309); assay: Displacement of [3H]NMS from human recombinant muscarinic receptor M3 expressed in CHO-K1 cell membranes assessed as inhibition constant incubated for 1 hr by Radioligand binding assay
# [18] = In vivo receptor occupancy at muscarinic M1 receptor in myelin oligodendrocyte glycoprotein (MOG)-induced experimental autoimmune encephalitis C57BL/6 mouse model assessed as decrease in occupancy at 30 mg/kg, po measured after 24 hrs; assay type: functional; set-up: Activity: scale not given: the % may be the effect or the level left
# [19] = Fraction unbound in rat brain at 30 mg/kg, po measured after 24 hrs; assay type: ADME, organism-based; details: in vivo
# [20] = Metabolic stability in rat liver microsomes assessed as intrinsic clearance at 1 uM measured up to 60 mins by LC-MS/MS analysis; assay type: ADME, Microsome; details: read-out: CLH
# [21] = AUC in rat at 10 mg/kg, po; assay type: ADME, organism-based; set-up: dose 10 mg/kg; details: in vivo
# [22] = Half life in rat at 2 mg/kg, iv; assay type: ADME, organism-based; details: in vivo
# [23] = biological target: Cytochrome P450 2D6 (Homo sapiens, UniProt P10635); assay: Inhibition of human CYP2D6 in pooled human liver microsomes using dextromethorphan as substrate incubated for 20 mins by LC-MS/MS; assay type: ADME
# [24] = biological target: Cytochrome P450 2C9 (Homo sapiens, UniProt P11712); assay: Inhibition of human CYP2C9 in pooled human liver microsomes using diclofenac as substrate incubated for 5 mins by LC-MS/MS; assay type: ADME
# [25] = biological target: T3, Muscarinic acetylcholine receptor M3; assay: Antagonist activity at human recombinant muscarinic receptor M3 expressed in CHO-K1 cells assessed as EC80 acetylcholine-induced calcium flux incubated for 30 mins; assay type: functional, cell-based
# [26] = Plasma protein binding in rat assessed as unbound fraction; assay type: ADME, cell-free
# [27] = AUC in rat at 2 mg/kg, iv; assay type: ADME, organism-based; set-up: dose 2 mg/kg; details: in vivo
# [28] = Fraction unbound in rat plasma at 30 mg/kg, po measured after 24 hrs; assay type: ADME, organism-based; details: in vivo
# [29] = Metabolic stability in rat liver microsomes assessed as parent compound remaining at 1 uM measured at 15 mins by LC-MS/MS analysis; assay type: ADME, Microsome; details: read-out: Stabilty
# [30] = Plasma concentration in rat at 10 mg/kg, po measured after 2 hrs by LC-MS/MS; assay type: ADME, organism-based
# [31] = Brain to plasma permeability coefficient, Kp of the compound in rat at 10 mg/kg, po measured after 2 hrs by LC-MS/MS; assay type: ADME, organism-based; details: read-out: K(p,uu,brain)
# [32] = Fraction unbound in rat plasma at 10 mg/kg, po measured by LC-MS/MS; assay type: ADME, organism-based
# [33] = Fraction unbound rat plasma at 10 mg/kg, po measured after 2 hrs by LC-MS/MS; assay type: ADME, organism-based; details: in vivo
# [34] = biological target: Voltage-gated inwardly rectifying potassium channel KCNH2 (Homo sapiens, UniProt Q12809); assay: Inhibition of human ERG expressed in HEK293 cells at 3 uM by patch clamp assay; assay type: cell-based; details: hek293, 3 µM
# Voltage-gated inwardly rectifying potassium channel KCNH2, sequence (Q12809 whole entry): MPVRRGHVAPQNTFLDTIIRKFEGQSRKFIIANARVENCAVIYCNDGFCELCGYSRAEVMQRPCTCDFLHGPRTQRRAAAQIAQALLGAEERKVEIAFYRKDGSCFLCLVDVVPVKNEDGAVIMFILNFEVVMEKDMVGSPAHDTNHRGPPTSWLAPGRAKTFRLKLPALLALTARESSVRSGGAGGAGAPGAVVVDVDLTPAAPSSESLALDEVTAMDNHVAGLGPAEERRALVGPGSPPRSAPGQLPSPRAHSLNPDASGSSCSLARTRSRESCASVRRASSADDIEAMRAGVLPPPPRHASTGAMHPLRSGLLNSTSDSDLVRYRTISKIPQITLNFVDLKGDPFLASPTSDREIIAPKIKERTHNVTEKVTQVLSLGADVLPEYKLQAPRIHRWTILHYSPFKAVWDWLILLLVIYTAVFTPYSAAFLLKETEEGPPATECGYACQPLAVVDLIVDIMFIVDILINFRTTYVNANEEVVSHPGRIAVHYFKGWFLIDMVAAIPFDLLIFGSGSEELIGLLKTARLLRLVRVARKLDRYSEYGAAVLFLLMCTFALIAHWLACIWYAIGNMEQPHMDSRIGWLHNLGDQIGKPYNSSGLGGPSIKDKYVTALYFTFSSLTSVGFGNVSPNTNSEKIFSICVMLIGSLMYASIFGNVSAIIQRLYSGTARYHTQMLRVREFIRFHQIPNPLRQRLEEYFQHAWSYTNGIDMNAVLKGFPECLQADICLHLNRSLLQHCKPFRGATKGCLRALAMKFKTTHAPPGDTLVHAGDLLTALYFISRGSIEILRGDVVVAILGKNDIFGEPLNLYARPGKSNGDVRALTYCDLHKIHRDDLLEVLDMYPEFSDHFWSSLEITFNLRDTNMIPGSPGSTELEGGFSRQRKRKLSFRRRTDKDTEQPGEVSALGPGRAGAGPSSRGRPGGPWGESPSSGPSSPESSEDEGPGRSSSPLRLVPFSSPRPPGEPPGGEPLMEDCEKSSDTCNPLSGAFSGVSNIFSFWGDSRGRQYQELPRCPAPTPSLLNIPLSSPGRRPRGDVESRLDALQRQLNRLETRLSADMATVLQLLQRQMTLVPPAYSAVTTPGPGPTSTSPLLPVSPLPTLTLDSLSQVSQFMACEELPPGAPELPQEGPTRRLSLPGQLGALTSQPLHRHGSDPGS
# T3 sequence (P20309 whole entry): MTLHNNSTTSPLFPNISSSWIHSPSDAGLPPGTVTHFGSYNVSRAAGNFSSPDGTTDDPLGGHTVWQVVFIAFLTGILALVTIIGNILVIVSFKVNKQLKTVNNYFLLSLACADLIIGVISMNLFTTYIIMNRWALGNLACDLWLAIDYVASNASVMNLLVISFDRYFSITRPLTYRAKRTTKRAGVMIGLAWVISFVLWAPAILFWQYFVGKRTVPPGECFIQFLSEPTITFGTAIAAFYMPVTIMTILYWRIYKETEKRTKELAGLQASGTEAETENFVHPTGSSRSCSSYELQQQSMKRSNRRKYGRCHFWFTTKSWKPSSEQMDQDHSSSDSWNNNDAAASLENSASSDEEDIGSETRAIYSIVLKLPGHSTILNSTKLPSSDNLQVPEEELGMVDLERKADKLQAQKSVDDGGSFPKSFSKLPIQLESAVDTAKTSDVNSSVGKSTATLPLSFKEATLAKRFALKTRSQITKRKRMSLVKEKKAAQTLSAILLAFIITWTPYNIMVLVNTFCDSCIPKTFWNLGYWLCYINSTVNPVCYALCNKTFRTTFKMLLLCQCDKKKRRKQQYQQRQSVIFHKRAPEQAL
# Cytochrome P450 3A4, sequence (P08684 whole entry): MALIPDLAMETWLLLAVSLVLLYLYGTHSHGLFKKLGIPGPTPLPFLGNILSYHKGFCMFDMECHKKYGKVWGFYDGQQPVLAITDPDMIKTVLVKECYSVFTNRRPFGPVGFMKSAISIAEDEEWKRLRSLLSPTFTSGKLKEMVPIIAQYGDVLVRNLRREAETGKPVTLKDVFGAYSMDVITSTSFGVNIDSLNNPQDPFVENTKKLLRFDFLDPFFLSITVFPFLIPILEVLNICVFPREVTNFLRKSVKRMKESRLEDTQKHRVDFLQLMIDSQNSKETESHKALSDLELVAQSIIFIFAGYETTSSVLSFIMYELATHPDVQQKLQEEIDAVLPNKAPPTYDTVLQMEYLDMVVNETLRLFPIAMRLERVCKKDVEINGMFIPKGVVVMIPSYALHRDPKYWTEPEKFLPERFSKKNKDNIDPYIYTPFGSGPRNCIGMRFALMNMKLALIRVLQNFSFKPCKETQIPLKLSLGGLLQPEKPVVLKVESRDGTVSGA
# Cytochrome P450 2D6, sequence (P10635 whole entry): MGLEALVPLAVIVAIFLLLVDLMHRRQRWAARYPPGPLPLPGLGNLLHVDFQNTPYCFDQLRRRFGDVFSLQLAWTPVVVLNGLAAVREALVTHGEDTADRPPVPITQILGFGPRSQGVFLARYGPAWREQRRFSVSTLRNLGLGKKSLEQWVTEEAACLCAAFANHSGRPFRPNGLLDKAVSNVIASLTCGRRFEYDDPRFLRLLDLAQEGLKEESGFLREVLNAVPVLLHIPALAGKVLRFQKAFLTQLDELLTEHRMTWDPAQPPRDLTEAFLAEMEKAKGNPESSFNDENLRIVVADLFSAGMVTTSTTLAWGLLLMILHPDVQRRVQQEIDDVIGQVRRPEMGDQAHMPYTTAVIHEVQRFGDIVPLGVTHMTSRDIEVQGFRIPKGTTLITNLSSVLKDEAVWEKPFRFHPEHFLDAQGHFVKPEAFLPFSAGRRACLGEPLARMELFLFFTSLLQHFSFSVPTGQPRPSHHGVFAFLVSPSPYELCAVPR
# Cytochrome P450 2C9, sequence (P11712 whole entry): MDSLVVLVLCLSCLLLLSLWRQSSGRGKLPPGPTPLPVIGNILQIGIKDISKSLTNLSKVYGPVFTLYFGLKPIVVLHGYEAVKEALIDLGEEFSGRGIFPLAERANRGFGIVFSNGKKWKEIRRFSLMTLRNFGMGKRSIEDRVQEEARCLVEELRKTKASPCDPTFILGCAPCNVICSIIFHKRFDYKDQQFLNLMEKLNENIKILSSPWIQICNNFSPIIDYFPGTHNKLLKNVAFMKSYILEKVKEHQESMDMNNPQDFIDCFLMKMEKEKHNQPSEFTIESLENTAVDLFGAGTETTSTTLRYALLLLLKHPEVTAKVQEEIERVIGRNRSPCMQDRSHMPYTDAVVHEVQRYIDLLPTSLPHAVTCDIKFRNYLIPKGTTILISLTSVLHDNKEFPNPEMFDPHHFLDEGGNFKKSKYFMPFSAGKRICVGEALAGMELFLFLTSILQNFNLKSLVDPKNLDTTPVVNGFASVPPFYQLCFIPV
smiles,measurement,setting,value
Cc1cc(F)cnc1N1CCCN(C(=O)CCCc2cccc3ncccc23)CC1,IC50,[1]; read-out: IC50,1400 nM
N#Cc1ccc(N2C3CCC2CN(C(=O)CCS(=O)(=O)c2cccc4ncsc24)C3)nc1,IC50,[2],> 10000 nM
same,Ki,[3],0.14 nM
same,clearance,[4],56 mL/min/kg
same,concentration at 2 h,[5],26 nM
same,Ki,[6],19 nM
same,bioavailability,[7],4.5%
same,IC50,[8]; read-out: IC50,200 nM
same,fraction unbound,[9],0.18
same,microsomal CLint at 1 µM,[10],21 µL/min/mg
same,Drug uptake(free),[11],3.4 nM
same,IC50,[1]; read-out: IC50,1.8 nM
same,Cp(f),[12],117 nM
same,Papp A→B,[13],7.7 ×10⁻⁶ cm/s
same,CL free,[14],273 mL/min/kg
same,microsomal CLint at 1 µM,[15],42 µL/min/mg
same,Occ,[16],Active
same,Ki,[17],0.84 nM
same,Activity,[18],40%
same,Drug uptake(free),[19],0.12 nM
same,microsomal CLint at 1 µM,[20],23 µL/min/mg
same,AUC,[21],21 ng·h/mL
same,half-life,[22],54 min
same,IC50,[23],> 10000 nM
same,IC50,[24],> 10000 nM
same,IC50,[25]; read-out: IC50,55 nM
same,fraction unbound,[26],0.2
same,AUC,[27],100 ng·h/mL
same,Cp(f),[28],2.9 nM
Cc1cc(F)cnc1N1CCN(C(=O)CCCc2cccc3nc(N)sc23)[C@@H](C)C1,"remaining at 0.25 h, 1 µM",[29],3.7%
Cc1cc(F)cnc1N1CCN(C(=O)CCCc2cccc3cncnc23)[C@@H](C)C1,IC50,[1]; read-out: IC50,> 20000 nM
same,IC50,[1]; read-out: pIC50 (converted),> 10000 nM
Cc1cc(F)cnc1N1CCN(C(=O)CCCc2cccc3ncccc23)[C@@H](C)C1,IC50,[8]; read-out: pIC50 (converted),2000 nM
same,Papp A→B,[13],8 ×10⁻⁶ cm/s
same,"remaining at 0.25 h, 1 µM",[29],0.2%
same,IC50,[25]; read-out: pIC50 (converted),1260 nM
N#Cc1ccc(N2CC3CCC(C2)N3C(=O)CCS(=O)(=O)c2cccc3ncsc23)nc1,IC50,[1]; read-out: IC50,8.7 nM
N#Cc1ccc(N2C3COCC2CN(C(=O)CCS(=O)(=O)c2cccc4ncsc24)C3)nc1,IC50,[1]; read-out: IC50,31 nM
O=C(CCCc1cccc2ncccc12)N1CC2CC1CN2c1ccc(F)cn1 (racemic),IC50,[1]; read-out: IC50,950 nM
C[C@@H]1CN(C(=O)CCS(=O)(=O)c2cccc3ncsc23)[C@@H](C)CN1c1ccc(C#N)cn1 (racemic),IC50,[1]; read-out: IC50,330 nM
N#Cc1cc(N2CCN(C(=O)CCCc3cccc4ncccc34)CC2)ccn1,IC50,[1]; read-out: IC50,65 nM
N#Cc1ccc(N2CCN(C(=O)CCS(=O)(=O)c3cccc4ncsc34)CC2)nc1,concentration at 2 h,[30],89 nM
same,IC50,[1]; read-out: IC50,5.8 nM
same,Kp uu at 2 h,[31],0.17
same,fraction unbound,[32],0.15
same,Occ,[18],50%
same,"remaining at 0.25 h, 1 µM",[29],59%
same,Cp(f),[33],13 nM
same,inhibition (INH),[34],69%
Cc1cc(F)cnc1N1CCN(C(=O)CCCc2cccc3ncncc23)[C@@H](C)C1,IC50,[1]; read-out: IC50,83 nM
same,"remaining at 0.25 h, 1 µM",[29],0%
Cc1ccncc1N1CCN(C(=O)CCCc2cccc3ncccc23)[C@H](C)C1,IC50,[1]; read-out: IC50,20 nM
Cc1cc(F)cnc1N1CCN(C(=O)CCCS(=O)(=O)c2cccc3ncsc23)[C@@H](C)C1,IC50,[1]; read-out: IC50,1900 nM
CC1CN(C(=O)CCS(=O)(=O)c2cccc3ncsc23)CCN1c1ccc(C#N)cn1 (racemic),IC50,[1]; read-out: IC50,5.8 nM
O=C(CCCc1cccc2ncccc12)N1CCN(c2ccncc2F)CC1,IC50,[1]; read-out: IC50,490 nM
N#Cc1ccc(C2=CCN(C(=O)CCS(=O)(=O)c3cccc4ncsc34)CC2)nc1,IC50,[1]; read-out: IC50,80 nM
O=C(CCS(=O)(=O)c1cccc2ncsc12)N1CCN(c2ccncc2F)CC1,IC50,[1]; read-out: IC50,380 nM
same,"remaining at 0.25 h, 1 µM",[29],29%
C[C@@H]1CN(c2ccncc2Cl)CCN1C(=O)CCCc1cccc2ncccc12,IC50,[1]; read-out: IC50,38 nM
Cc1cc(F)cnc1N1CCN(C(=O)CCCc2cccc3ncccc23)[C@H](C)C1,IC50,[8]; read-out: pIC50 (converted),631 nM
same,IC50,[25]; read-out: pIC50 (converted),501 nM
